Converted amounts (≈) assume the structure as drawn. The source made the active and inactive calls. The rule behind the calls is not given here.
Tests used:
HepG2 [1] = assay: Cytotoxicity against human HepG2 cells assessed as reduction in cell viability at 100 uM after 48 hrs by WST1 assay relative to control; type: cell-based; settings: hepg2, 48 h
[2] = molecular target: Luciferin 4-monooxygenase (Photinus pyralis) (UniProt P08659); assay: Inhibition of GW4064-induced firefly luciferase expression in HeLa cells co-expressing full length human FXR, BSEP-pGL3 and pSG5-hRXR at 1 uM treated at 23 hrs post GW4064 treatment for 1 hr by luminescence assay; type: cell-based
HepG2 [3] = assay: Cytotoxicity against human HepG2 cells assessed as reduction in cell viability up to 100 uM after 48 hrs by WST1 assay; type: cell-based; settings: hepg2, 48 h
HeLa = assay: Cytotoxicity against human HeLa cells co-expressing full length human FXR, BSEP-pGL3 and pSG5-hRXR assessed as reduction in cell viability up to 50 uM after 48 hrs by WST1 assay; type: ADME, cell-based
HEK293 = assay: Cytotoxicity against HEK293 cells assessed as reduction in cell viability at >10 uM after 48 hrs by WST1 assay; type: cell-based; settings: human, hek293, 48 h
[4] = Metabolic stability in Sprague-Dawley rat liver microsomes assessed as parent compound remaining at 10 uM in presence of NADPH measured immediately by HPLC analysis; type: ADME, microsome; settings: read-out: Stability
[5] = Metabolic stability in Sprague-Dawley rat liver microsomes assessed as parent compound remaining at 10 uM in presence of NADPH measured after 15 mins by HPLC analysis; type: ADME, microsome; settings: read-out: Stability
[6] = Metabolic stability in Sprague-Dawley rat liver microsomes assessed as parent compound remaining at 10 uM in presence of NADPH measured after 30 mins by HPLC analysis; type: ADME, microsome; settings: read-out: Stability
[7] = Metabolic stability in Sprague-Dawley rat liver microsomes assessed as parent compound remaining at 10 uM in presence of NADPH measured after 60 mins by HPLC analysis; type: ADME, microsome; settings: read-out: Stability
[8] = Aqueous solubility of the compound; type: physicochemical; settings: water
[9] = molecular target: T1, Peroxisome proliferator-activated receptor gamma (Homo sapiens) (UniProt P37231); assay: Agonist activity at GAL4-fused human PPARgamma LBD expressed in HEK293T cells at 1 uM after 12 to 14 hrs by luciferase reporter gene assay; type: cell-based
T1 sequence (whole entry): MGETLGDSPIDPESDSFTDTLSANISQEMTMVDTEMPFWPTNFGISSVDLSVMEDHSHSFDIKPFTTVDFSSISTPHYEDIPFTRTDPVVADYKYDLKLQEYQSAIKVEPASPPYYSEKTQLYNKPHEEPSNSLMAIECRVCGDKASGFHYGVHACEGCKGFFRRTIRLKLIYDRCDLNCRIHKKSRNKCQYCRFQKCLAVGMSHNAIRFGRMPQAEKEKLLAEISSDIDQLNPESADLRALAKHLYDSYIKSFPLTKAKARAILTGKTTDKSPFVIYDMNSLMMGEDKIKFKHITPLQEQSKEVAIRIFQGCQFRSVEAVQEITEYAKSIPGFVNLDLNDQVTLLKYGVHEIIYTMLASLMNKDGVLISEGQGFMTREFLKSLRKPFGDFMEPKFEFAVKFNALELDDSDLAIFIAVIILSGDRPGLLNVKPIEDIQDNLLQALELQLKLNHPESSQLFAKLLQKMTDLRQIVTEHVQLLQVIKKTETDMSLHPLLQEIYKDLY

[10] = molecular target: T2, Nuclear receptor subfamily 1 group I member 3 (Homo sapiens, UniProt Q14994); assay: Agonist activity at GAL4-fused human CAR LBD expressed in HEK293T cells at 1 uM after 12 to 14 hrs by luciferase reporter gene assay; type: cell-based
T2 sequence (Q14994 whole entry): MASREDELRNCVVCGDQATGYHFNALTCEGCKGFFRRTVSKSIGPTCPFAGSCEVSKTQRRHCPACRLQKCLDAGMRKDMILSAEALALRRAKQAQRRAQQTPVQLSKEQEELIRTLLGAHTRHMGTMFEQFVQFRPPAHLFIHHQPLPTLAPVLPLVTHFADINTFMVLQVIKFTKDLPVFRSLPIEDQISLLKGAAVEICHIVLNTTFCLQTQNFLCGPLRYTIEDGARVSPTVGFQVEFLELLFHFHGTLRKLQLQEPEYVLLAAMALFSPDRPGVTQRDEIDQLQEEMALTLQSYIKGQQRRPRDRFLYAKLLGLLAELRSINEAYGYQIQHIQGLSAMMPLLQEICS

[11] = molecular target: T3, Retinoic acid receptor RXR-alpha (Homo sapiens) (UniProt P19793); assay: Agonist activity at GAL4-fused human RXRalpha LBD expressed in HEK293T cells at 1 uM after 12 to 14 hrs by luciferase reporter gene assay; type: cell-based
T3 sequence (whole entry): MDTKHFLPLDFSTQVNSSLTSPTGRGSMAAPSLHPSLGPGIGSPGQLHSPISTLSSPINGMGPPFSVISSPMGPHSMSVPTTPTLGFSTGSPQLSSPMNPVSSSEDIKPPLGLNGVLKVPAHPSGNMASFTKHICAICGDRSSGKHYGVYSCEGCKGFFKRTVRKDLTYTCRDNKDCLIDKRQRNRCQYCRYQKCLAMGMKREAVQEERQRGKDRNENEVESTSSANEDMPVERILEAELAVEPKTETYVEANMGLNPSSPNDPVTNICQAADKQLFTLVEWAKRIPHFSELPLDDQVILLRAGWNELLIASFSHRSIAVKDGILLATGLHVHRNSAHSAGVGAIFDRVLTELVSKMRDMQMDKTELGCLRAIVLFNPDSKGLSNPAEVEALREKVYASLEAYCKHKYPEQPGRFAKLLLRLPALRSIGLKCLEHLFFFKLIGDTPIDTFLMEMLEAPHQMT

[12] = molecular target: T4, Oxysterols receptor LXR-alpha (Homo sapiens) (UniProt Q13133); assay: Agonist activity at GAL4-fused human LXRalpha LBD expressed in HEK293T cells at 1 uM after 12 to 14 hrs by luciferase reporter gene assay; type: cell-based
T4 sequence (whole entry): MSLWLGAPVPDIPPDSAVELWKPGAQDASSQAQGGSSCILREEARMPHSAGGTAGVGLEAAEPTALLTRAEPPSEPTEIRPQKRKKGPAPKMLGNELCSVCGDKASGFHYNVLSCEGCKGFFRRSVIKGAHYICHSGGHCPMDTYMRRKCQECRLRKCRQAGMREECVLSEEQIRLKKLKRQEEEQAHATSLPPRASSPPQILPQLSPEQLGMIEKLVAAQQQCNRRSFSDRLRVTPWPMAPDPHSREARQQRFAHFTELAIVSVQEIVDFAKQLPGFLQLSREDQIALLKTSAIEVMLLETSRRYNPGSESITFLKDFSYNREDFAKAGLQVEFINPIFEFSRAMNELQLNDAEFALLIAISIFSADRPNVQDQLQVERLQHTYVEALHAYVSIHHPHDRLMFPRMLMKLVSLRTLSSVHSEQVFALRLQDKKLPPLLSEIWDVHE

[13] = molecular target: T1, Peroxisome proliferator-activated receptor gamma (Homo sapiens); assay: Antagonist activity at GAL4-fused human PPARgamma LBD expressed in HEK293T cells at 1 uM after 12 to 14 hrs by luciferase reporter gene assay; type: cell-based
[14] = molecular target: T2, Nuclear receptor subfamily 1 group I member 3; assay: Antagonist activity at GAL4-fused human CAR LBD expressed in HEK293T cells at 1 uM after 12 to 14 hrs by luciferase reporter gene assay; type: cell-based
[15] = molecular target: T3, Retinoic acid receptor RXR-alpha (Homo sapiens); assay: Antagonist activity at GAL4-fused human RXRalpha LBD expressed in HEK293T cells at 1 uM after 12 to 14 hrs by luciferase reporter gene assay; type: cell-based
[16] = molecular target: T4, Oxysterols receptor LXR-alpha (Homo sapiens); assay: Antagonist activity at GAL4-fused human LXRalpha LBD expressed in HEK293T cells at 1 uM after 12 to 14 hrs by luciferase reporter gene assay; type: cell-based
[17] = molecular target: T5, Bile acid receptor (Homo sapiens) (UniProt Q96RI1); assay: Antagonist activity at full length human FXR expressed in HeLa cells co-expressing BSEP-pGL3/pSG5-hRXR assessed as inhibition of GW4064-induced receptor activation at 30 uM after 24 hrs by luciferase reporter gene assay; type: cell-based
T5 sequence (whole entry): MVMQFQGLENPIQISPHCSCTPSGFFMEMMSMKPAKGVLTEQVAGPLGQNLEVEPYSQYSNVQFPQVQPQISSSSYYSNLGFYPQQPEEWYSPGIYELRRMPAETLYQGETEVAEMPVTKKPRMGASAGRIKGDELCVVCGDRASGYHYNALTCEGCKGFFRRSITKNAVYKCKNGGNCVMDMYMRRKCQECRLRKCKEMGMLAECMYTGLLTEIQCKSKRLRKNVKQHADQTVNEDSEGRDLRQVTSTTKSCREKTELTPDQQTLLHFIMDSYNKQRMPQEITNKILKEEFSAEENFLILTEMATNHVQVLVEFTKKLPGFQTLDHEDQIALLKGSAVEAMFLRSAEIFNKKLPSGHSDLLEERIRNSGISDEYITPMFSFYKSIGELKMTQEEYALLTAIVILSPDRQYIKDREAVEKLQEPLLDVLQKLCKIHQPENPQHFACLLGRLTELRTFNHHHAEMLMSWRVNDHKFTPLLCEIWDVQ

Luciferin 4-monooxygenase (Photinus pyralis), sequence (P08659 whole entry): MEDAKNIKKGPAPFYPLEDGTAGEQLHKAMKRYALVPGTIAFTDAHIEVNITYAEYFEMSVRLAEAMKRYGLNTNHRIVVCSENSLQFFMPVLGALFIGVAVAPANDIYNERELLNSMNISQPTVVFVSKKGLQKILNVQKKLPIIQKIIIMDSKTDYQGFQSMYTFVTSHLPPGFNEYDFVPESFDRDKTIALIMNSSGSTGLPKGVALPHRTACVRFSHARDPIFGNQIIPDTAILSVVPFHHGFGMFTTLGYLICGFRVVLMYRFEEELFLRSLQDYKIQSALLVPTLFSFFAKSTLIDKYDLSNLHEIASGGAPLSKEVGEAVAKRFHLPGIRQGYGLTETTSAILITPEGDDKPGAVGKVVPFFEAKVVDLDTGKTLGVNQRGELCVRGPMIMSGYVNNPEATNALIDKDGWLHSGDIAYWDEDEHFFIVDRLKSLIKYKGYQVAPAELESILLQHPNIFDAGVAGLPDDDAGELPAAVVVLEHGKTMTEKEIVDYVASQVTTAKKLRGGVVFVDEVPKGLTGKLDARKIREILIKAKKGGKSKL

`COc1cc(C(=O)Nc2ccc(CC(=O)O)cc2)ccc1C(C)(C)C` gave an Activity (HepG2 [1]) of 112%.

For `COc1cc(C(C)(C)C)ccc1C(=O)Nc1ccc(CC(=O)O)cc1`, the inhibition [2] was “inactive”, the Activity (HepG2 [3]) was “Non-Toxic” and the Activity (HeLa) was “Non-Toxic”. The Activity (HEK293) was “Non-Toxic”, the remaining at 0 min, 10 µM [4] was 100% and the remaining at 0.25 h, 10 µM [5] was 98%. It also gave a remaining at 0.5 h, 10 µM [6] of 96%, a remaining at 1 h, 10 µM [7] of 97% and a solubility [8] of 16 µg/mL (≈ 46.9 µM). The Activity [9] was “inactive”, the Activity [10] was “Not Active” and the Activity [11] was “inactive”. The Activity [12] was “inactive”, the inhibition [13] was “inactive” and the “inhibition (INH)” value [14] was “Not Active”. For the same compound, the inhibition [15] was “inactive” and the inhibition [16] was “inactive”.

With `O=C(O)Cc1ccc(NC(=O)c2ccccc2-c2ccccc2)cc1` the inhibition [17] was “inactive”.

`CC(C)(C)c1ccc(C(=O)Nc2ccccc2CC(=O)O)cc1` showed an Activity (HepG2 [1]) of 118%.

In the case of `CC(C)(C)c1ccc(C(=O)Nc2cccc(CC(=O)O)c2)cc1`, the inhibition [2] is reported as “inactive”.

In the case of `COc1ccc(C(C)(C)C)cc1C(=O)Nc1ccc(CC(=O)O)cc1`, the inhibition [17] is reported as “inactive”.

Source: ChEMBL document CHEMBL4229454, “Structural optimization and in vitro profiling of N-phenylbenzamide-based farnesoid X receptor antagonists” (Bioorg Med Chem, 2018)
